Where no end group is shown, it is not given here. [ ]: non-standard residue; d: D form. Ala(3-Me-diazirin-3-yl) = CC1(C[C@H](N)C(=O)O)N=N1; PEG = not defined here
Experiments:
C57BL/6 mice [1] = experiment: imiquimod-induced psoriasis model; assay type: in vivo
Procedure: FIG. 4—Peptide administration reduces local disease severity in a mouse model of psoriasis. (A) Experimental outline (B) Clinical scores of mice receiving PBS or peptide RP23 (SEQ ID NO:12) injection, compared to daily (0-4 days) topical application of glucocorticoid on the back and ear. (C) Measures of disease local to the peptide RP23 injection site. Redness was measured using an unbiased erythema meter and skin thickness by manual callipers. (D) Spleen weight at day 5 as a measure of systemic immune suppression. […] Data are presented as mean±S.E.M. Statistical significance was determined by ANOVA with Dunnett's multiple comparison test, *p<0.05, **p<0.01, ***p<0.001, ****p<0.0001.
FIG. 10. Therapeutic synergy of RP23 and topical steroid in the murine imiquimod-induced psoriasis model. Aldara cream (5% imiquimod, 57.5 mgs) was applied daily (days 0-4) to the backs of C57BL/6 female mice to induce psoriasis. Clinical scores (PASI), modified psoriasis area and severity index) of mice receiving (A) PBS or RP23 injection at day −1, with or without topical application of glucocorticoid (0.05% betamethasone dipropionate, “BD” 30 mgs) on the back at day 0 (B) PBS or RP23 injection at day 1 and topical application of glucocorticoid at day 1, in comparison to PBS injection only at day −1. Data are the means+/−SEM (n=5). Statistical significance was determined by ANOVA with Dunnett's multiple comparison test to PBS only control, *p<0.05, **p<0.01, ***p<0.001, ****p<0.0001.
The backs of 8-week old female C57BL/6 mice (Australian BioResources) were coarse shaved. A minimum of 24 hours later, 10 nmol RP23 was delivered via sub-cutaneous injection at the lower back in 200 μl phosphate buffered saline (PBS). Groups of mice acting as positive controls for disease development received injection of PBS only. One or seven days later, psoriasis-like inflammation was induced via topical application of 5% imiquimod cream (Aldara, Inova Pharmaceuticals) to the shaved back (57.5 mgs) and one ear (5 mg, divided between dorsal and ventral sides). The contralateral ear served as a negative control for imiquimod-induced inflammation. Imiquimod application was repeated daily for four consecutive days. C57BL/6 mice experience rapid weight loss (up to 20%) upon application of imiquimod cream. Supportive care was provided in the form of dietary supplementation commenced 2 days prior to imiquimod application, and intra-peritoneal injection of 300 μl sterile PBS on days two and three of imiquimod application. Disease progression was monitored for five days, by recording weight loss and grading disease of the back skin using a modified Psoriasis Area and Severity Index (PASI) clinical scoring system, that assessed only disease severity. Additionally, erythema meter (DSM II ColorMeter, Cortex Technology, Denmark) readings were taken at four quadrants on the back skin and skin backfold thickness measurements were recorded using manual callipers. Disease progression of the ear skin was determined by recording ear thickness, measured by manual callipers. As a positive control for immune suppressive therapy, groups of mice received daily topical application of betamethasone dipropionate 0.05% (MSD) cream (30 mgs on the back, 10 mgs on the ear).
Aldara cream (5% imiquimod, 57.5 mgs) was applied daily (days 0-4) to the backs of C57BL/6 female mice to induce psoriasis. Clinical scores (PASI, modified psoriasis area and severity index) of mice receiving prophylactic PBS or RP23 (at day −1), with or without topical application of glucocorticoid (0.05% betamethasone dipropionate, 30 mgs) to the back at day 0, were determined (FIG. 10A).
RP23 and BD therapy were also tested when given synergistically at a therapeutic timepoint (at day 1). Psoriasis was induced as above, but clinical scores were determined daily for 10 days after ceasing imiquimod application at day 5, to record the rate and degree of psoriasis disease resolution (FIG. 10B).

C57BL/6 mice [2] = experiment: contact hypersensitivity model (DNFB-induced contact dermatitis); assay type: in vivo; conditions: for specific increase in ear thickness: equivalent molar amount of 10 nmol RP23, subcutaneously at the abdomen (FIG. 9); for inflammatory response (ear thickness over 72 hours): 10 nmol subcutaneously at the abdomen, compared to PBS (FIG. 8)
Procedure: FIG. 2—Peptide administration reduces inflammation in a mouse model of contact dermatitis and reduces myeloid inflammatory infiltrate. (A) Experimental outline of DNFB-induced contact dermatitis. (B) Ear thickness of peptide RP23 (SEQ ID NO:12) treated mice, repeated 3 times. […] Data are presented as mean±S.E.M. Statistical significance was determined (B) by multiple t tests (C) by ANOVA with Dunnett's multiple comparison test, *p<0.05, **p<0.01, ***p<0.001.
FIG. 3—The peptide effect is dependent on the peptide sequence and dose. (A) PBS, scrambled peptide or peptide MUC1SP ([…]; SEQ ID NO: 3) was injected subcutaneously seven days prior to sensitising C57BL/6 mice (n=5) with DNFB on the abdomen. […] (B) A comparison of the immunosuppressive effect of peptide RP23 (SEQ ID NO:12) and MUC1SP (SEQ ID NO: 3). (C) SEQ ID NO:12 suppressed immunity in a dose dependent manner. (D) Addition of GM-CSF to the SEQ ID NO:12 injection abrogated the immune suppression. Data are the means±S.E.M.
FIG. 8—Effects of peptide variants on the inflammatory response. Mice received one injection of PBS or one of the following peptides (10 nmol) subcutaneously at the abdomen (A) peptide RP23 (SEQ ID NO: 12), peptide AF594-RP23 (SEQ ID NO: 21), peptide K4-G3-MUC1SP (SEQ ID NO:22) or MUC1SP C fragment (SEQ ID NO: 2). Five days later, mice were challenged with DNFB at a distal site, on the ears. The thickness of the ears was measured over 72 hours.
FIG. 9—Effects of further peptide variants, without N-terminal methionine, on the inflammatory response in a model of contact dermatitis. Mice received one injection of PBS, RP23 (SEQ ID NO:12) (10 nmol) or one of the peptide variants indicated in the table including SEQ ID NO: 32 and 35 as described herein (equivalent molar amount of RP23), subcutaneously at the abdomen. Photoleucine replaces leucine where indicated, these molecules used for photo-crosslinking studies. Seven days later, abdominal skin was sensitised with a contact irritant (DNFB) and five days later, mice were challenged with DNFB at a distal site, on the ears. (A) Specific increase in ear thickness over 72 hours, data are the means+/−SEM (n=6). Statistical significance was determined by ANOVA with Dunnett's multiple comparison test to PBS only control, **p<0.01. (B) Specific increase in ear thickness at 24 hours post-challenge. Data are the means+/−SEM (n=6). Statistical significance was determined by t-test to relevant control, as indicated, *p<0.05, **p<0.01, ns=not significant.
The abdomens of 8-week old female C57BL/6 mice (Australian BioResources) were coarse shaved. A minimum of 24 hours later, RP23 (SEQ ID NO:12) was delivered via sub-cutaneous injection at the abdomen in 50 μl phosphate buffered saline. Seven days later, mice were topically sensitised to 1-fluoro-2,4-dinitrobenzene (DNFB, 0.5 vol %) in olive oil/acetone (1:4, v/v, 30 μl) via application to the shaved abdomen. Five days after sensitisation, mice were challenged on the ears with topical DNFB (0.25 vol %) in olive oil/acetone (1:4, v/v, 15 μl per ear). Ear thickness was measured daily using manual callipers from immediately before challenge, up to 96 hours post challenge. Positive controls for ear swelling consisted of mice that were injected with PBS instead of RP23. Negative or irritant controls consisted of a group of mice that received the DNFB challenge, but not the sensitisation. The average of the change in ear thickness from this control group was subtracted from the change in ear thickness of other samples to account for non-specific irritation due to the application of DNFB, olive oil and acetone.
The inventors then conducted additional in vivo studies, using a model of contact hypersensitivity, to determine the portion of RP23 responsible for its immunomodulatory activity. Mice received one injection of peptide (10 nmol) subcutaneously at the abdomen, seven days prior to sensitisation of the skin with a contact irritant (DNFB). […]

C57BL/6 mice [3] = conditions: mouse, in vivo
Procedure: AF594-RP23^+ cells were identified by flow cytometry 24 hours after administration to C57BL/6 mice. (A) RP23 was injected subcutaneously at the lower back. […] (B) RP23 was delivered to the lungs by intranasal instillation. The percentage distribution of total RP23^+ leukocytes amongst immune cell subsets in the lungs is shown. Data are the means+/−SEM (n=4).
AF594-RP23+ cells were identified by flow cytometry 24 hours after administration to C57BL/6 mice.

[4] = daily topical 0.05% cream, 30 mgs back, 10 mgs ear

CCC(=O)OCC(=O)[C@@]1(OC(=O)CC)[C@@H](C)C[C@H]2[C@@H]3CCC4=CC(=O)C=C[C@]4(C)[C@@]3(F)[C@@H](O)C[C@@]21C [betamethasone dipropionate, reference compound]
spleen weight (C57BL/6 mice [1]; [4]): substantial reductions in spleen weight | weight loss (C57BL/6 mice [1]; [4]): greater degree of weight loss | clinical scores (PASI), protective effect as the disease progressed (C57BL/6 mice [1]; prophylactic: injection day -1, BD day 0, later time points): protective effect from BD alone was lost | systemic immune suppression / locality of effect (C57BL/6 mice [1]; spleen weight at day 5, distal ear thickness (FIG. 4d)): caused unwanted systemic immune suppression

(Gd)DOTA-KKKK-PEG-TPGTQSPFFLLLLLTVLTVV (KKKK[PEG]TPGTQSPFF[Ala(3-Me-diazirin-3-yl)][Ala(3-Me-diazirin-3-yl)][Ala(3-Me-diazirin-3-yl)][Ala(3-Me-diazirin-3-yl)][Ala(3-Me-diazirin-3-yl)]TVLTVV; not fully specified (N-terminus); reading uncertain; also: Gd chelated by DOTA; listed as Homo sapiens) [SEQ ID NO: 32]
specific increase in ear thickness (C57BL/6 mice [2]): confirmed

AF594-KKKK-PEG-MTPGTQSPFFLLLLLTVLTVV (KKKKMTPGTQSPFFLLLLLTVLTVV; AF594-KKKK-PEG N-terminal; (1)..(1) Alexa Fluor 594 backbone modification; (4)..(5) polyethylene glycol (PEG) backbone modification between residues 4 and 5; listed as Homo sapiens) [SEQ ID NO: 21]
inflammatory response (ear thickness over 72 hours) (C57BL/6 mice [2]): led to a reduced inflammatory response | cells capturing the peptide in the lung (C57BL/6 mice [3]): primarily captured by neutrophils, alveolar macrophages and DC | cells capturing the peptide in the skin (C57BL/6 mice [3]): primarily captured in the skin by neutrophils (CD11 b+Ly6G+) or CD11 b+ myeloid cell subsets

Biotin-KKKK-PEG-TPGTQSPFFLLLLL*TVLTVV, wherein L* is photoleucine [SEQ ID NO: 35]
specific increase in ear thickness (C57BL/6 mice [2]): confirmed

Biotin-KKKK-peg-QLTLTFVPSTLGFL*TLPVLV (no N-term Met) [scrambled variant of SEQ ID NO. 35, reference compound]
specific increase in ear thickness (C57BL/6 mice [2]): did not have a reduction in ear inflammation

KKKKGGGMTPGTQSPFFLLLLLTVLTVV (listed as Homo sapiens) [SEQ ID NO: 22]
inflammatory response (ear thickness over 72 hours) (C57BL/6 mice [2]): led to a reduced inflammatory response

LLLLLTVLTVV (listed as Homo sapiens) [SEQ ID NO: 2]
inflammatory response (ear thickness over 72 hours) (C57BL/6 mice [2]): led to a reduced inflammatory response

MTPGTQSPFFLLLLLTVLTVV (listed as Homo sapiens) [SEQ ID NO: 3]
ear swelling, sequence specificity (C57BL/6 mice [2]; subcutaneous seven days prior to sensitising with DNFB (FIG. 3a)): the effect was specific to the SEQ ID NO: 3 sequence

Reference: patent US20230002446A1, “ANTI-INFLAMMATORY AGENTS” (The University of Sydney, priority 2019, published 2023)
